The target of assay [1] is T1, AR-LBD / TIF2 box III LXXLL peptide (Homo sapiens, UniProt P10275).
T1 construct: The pET28a-AR-LBD (622-919) construct; made in house
T1 sequence (P10275 622-919): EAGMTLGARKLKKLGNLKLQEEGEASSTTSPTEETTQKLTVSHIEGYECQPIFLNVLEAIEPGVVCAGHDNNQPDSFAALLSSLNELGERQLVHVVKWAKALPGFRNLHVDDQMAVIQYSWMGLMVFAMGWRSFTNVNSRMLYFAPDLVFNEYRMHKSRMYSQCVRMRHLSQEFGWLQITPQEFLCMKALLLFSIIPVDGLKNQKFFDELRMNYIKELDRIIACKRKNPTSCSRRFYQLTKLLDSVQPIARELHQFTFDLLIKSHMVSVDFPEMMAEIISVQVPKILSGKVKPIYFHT
In words: AR-LBD::TIF2 Box III LXXLL peptide binding AlphaScreen assay. Here is the method:
[…] Biotinylated (Biotin-HN-[…]-CONH2; SEQ ID NO: 1) and non-biotinylated TIF2-box-III (738-756) peptide (H2N-[…]-CONH2; SEQ ID NO: 2) were synthesized by the Peptide & Peptoid Synthesis Facility, at the University of Pittsburgh Health Sciences Core Research Facilities. ALPHAScreen® streptavidin donor beads (SA-DB) and nickel chelate acceptor beads (Ni-AB) were purchased from Perkin Elmer (Waltham, MA). The assay was performed in 384-well white opaque plates (Greiner BioOne, #781080). […] 18 μL of the SA-DB bound biotinylated TIF2 peptide mixture was added to the assay plate before 5 μL of compounds were transferred into assay wells and 27 μL of the AlphaScreen® donor and acceptor B bead mixture was added to the plate. 32 wells containing 0.5% DMSO provided maximum controls and 32 wells containing a 500-fold excess of unlabeled TIF2-box-III (75 μM) were used as minimum controls. The combined head-protein-peptide-compound mixture was incubated for 1 h at room temperature in the dark, and then the RLU's were acquired at 520 nm after excitation at 680 nm on an EnVision® plate reader (Perkin Elmer, Waltham, MA) as described previously (Fancher et al., Assay Drug Dev Technol. 2019, 17:364-386).
For orientation: Bead proximity is the source of the signal in Alpha formats.

For assay [2], the system named is PC-3, DU-145, LNCaP, C4-2, and 22Rv1 PC cell lines. The assay can be described thus: Prostate cancer cell line growth inhibition assays, results stated across cell lines. The class given is cell-based. Conditions: for Relative potency in AR positive versus AR negative PC cell lines: 72 h growth inhibition; for GI50s against the 3 AR+ PCa cell lines: LNCaP, C4-2, 22Rv1; for GI50s against all 5 PCa cell lines: all 5 cell lines, 72 h. Here is the method:
Prostate Cancer Cell Line Growth Inhibition Assays: The PC-3, DU-145, LNCaP, C4-2, and 22Rv1 PC cell line growth inhibition assays have been described previously (Fancher et al., Assay Drug Dev Technol. 2016, 14:453-477; Fancher et al., Assay Drug Dev Technol. 2019, 17:364-386). On day 1, each PC cell line was harvested, counted, and seeded into two 384-well assay plates, a time zero (T0) and a time 72 h (T72) plate. PC cell lines were all seeded at 1,000 cells per well in 45 μL of tissue culture media in uncoated white clear bottom 384-well assay plates (VWR, #82050-076) using a Matrix electronic multichannel pipette (Thermo Fisher Scientific, Waltham, MA) and cultured overnight at 37° C., 5% CO2, and 95% humidity. On day 2, 25 μL of the CellTiter-Glo® (CTG) (Promega Corporation, Madison, WI) detection reagent was dispensed into the wells of the TO assay plate using a Matrix electronic multichannel pipette, and the RLUs were captured on the SpectraMax® M5e (Molecular Devices LLC, Sunnyvale, CA) microtiter plate reader. Also on day 2, 5 μL of compounds were transferred into the test wells of the T72 384-well assay plates which were returned to the incubator for 72 h. Control wells received DMSO alone. On day 5, 25 μL of the CTG detection reagent was dispensed into the wells of the T72 assay plate using a Matrix electronic multichannel pipette, and the RLU's were captured on the SpectraMax® M5e microtiter plate reader platform.
For the 96-well AR-LBD H^3-DHT radioligand binding assay, eight minimum and maximum plate control wells were utilized to normalize the data. For the PC cell line growth inhibition assays the DMSO control data from the TO and T72 assay plates was used to assess the dynamic range of the T0 to T72 cell growth, and to calculate S:B ratios and Z′-factor coefficient statistics for the assay signal window (T0 to T72). To normalize the 72 h compound exposure PC growth inhibition data, the signals from the compound treated wells were processed and expressed as % of the T72 DMSO plate controls. IC50 and GI50 values for each of the bioassays were calculated using GraphPad Prism 9 software to plot and fit data to curves using the Sigmoidal dose response variable slope equation Y=Bottom+[Top-Bottom]/[1+10^(Log EC50−X)*HillSlope].

The target in the next assay is T2, AR-LBD (Homo sapiens, UniProt P10275).
T2 construct: The pET28a-AR-LBD (622-919) construct; made in house
T2 sequence (P10275 622-919): T1 sequence (P10275 622-919)
The assay can be described thus: H^3-DHT radioligand binding assay. How it is done: H^3-DHT Radioligand Binding Assay: The His6-AR-LBD H^3-DHT competition binding assay has been described previously (Fancher et al., Assay Drug Dev Technol. 2016, 14:453-477; Fancher et al., Assay Drug Dev Technol. 2019, 17:364-386). Briefly, 96-well Cu^2+-coated plates (ThermoFisher) were incubated overnight at 4° C. with 5 µg per well His6-AR-LBD in 100 μL of PBS. Unbound His6-AR-LBD was aspirated, the plate was washed 3× with 100 μL of 0.05% Tween 20 in PBS and then blocked with 100 μL of 1 mg/mL BSA in PBS for 1 h. After three more washes with 100 μL of PBS and 0.05% Tween 20, 40 μL of PBS was added to wells followed by […] each of diluted compounds and 100 nM H^3-DHT transferred into the wells using a Matrix pipettor. Compounds were tested between 0.098 to 50 μM in the presence of 10 nM H^3-DHT. After 1 h, compounds and H^3-DHT were aspirated and washed 3× with 0.05% Tween 20 in PBS; 100 μL of Microscint™-20 micro-scintillation cocktail buffer (Perkin Elmer, Waltham, MA) was added to each well, plates were sealed with adhesive plastic covers; and the counts per minute (CPMs) were captured in a TopCount NXT microtiter plate reader (Perkin Elmer, Waltham, MA).

[3] abbreviates: read-out: IC50 in TIF2 LXXLL-peptide AR-LBD binding assay (potency range in words).
The mark [4] stands for this setting: 10 nM H^3-DHT, read-out: Inhibition H^3-DHT ligand binding to AR-LBD IC50.
[5] abbreviates: read-out: IC50 in H^3-DHT binding assay (potency range in words).
The mark [6] stands for this setting: AlphaScreen, read-out: Inhibition DHT-induced TIF2 NR Box 3 LXXLL peptide binding to AR-LBD IC50.

Values joined by “and” are separate entries in the source; they are usually repeats but may differ in a detail not shown here. Identical values can stand only once. Like-named read-outs stand apart in the source and are kept apart here. Where only a bound is given, the exact number is not on record here.

Broadly, the IC50 is the point on the concentration scale where inhibition reaches its midpoint.

For `Cc1c(-c2ccccc2F)[nH]c2ccc(CNC(=O)c3ccc(CO)o3)cc12` [Compound S3-14], the IC50 in assay [1] (setting [3]) is 10 to 100 µM; on AR-LBD (setting [4]), 63 µM; on AR-LBD (setting [5]), 10 to 100 µM. Moreover, the “Relative potency in AR positive versus AR negative PC cell lines” value (shortened to “Relative potency”) in assay [2] is “differential cytotoxicity in AR positive PC cell lines”. In addition, in assay [2], the “GI50s against the 3 AR+ PCa cell lines” value was in the range of 30 to 100 µM.

Consider `Cc1cccc2c(-c3ccc(O)c(F)c3)c[nH]c12` [Compound S3-17], for which the figures for the IC50 (in assay [1] (setting [3]); at AR-LBD (setting [4]); at AR-LBD (setting [5])) were 1 to 10 µM, 56 µM and 10 to 100 µM, respectively. In addition, in assay [2], the “Relative potency” value was “roughly equipotent against all 5 PC cell lines”.

With `COc1cc(-c2ccc(C)s2)cc2c1OCCN(c1nc(C(N)=O)cs1)C2` [Compound S1-5], the IC50 (in assay [1] (setting [6]); on AR-LBD (setting [4])) was more than 100 µM each time. Also, the “GI50s against all 5 PCa cell lines” value in assay [2] is more than 100 µM.

Regarding `Cc1nc(N)cc(N2CCOc3c(O)cc(-c4ccccc4C)cc3C2)n1` [Compound S1-2], in assay [1], the “IC50 in TIF2 LXXLL-peptide AR-LBD binding assay (potency range in words)” value is “mid 44 μM”. The IC50 was 21 to 83 µM in assay [1] (setting [6]) and more than 100 µM at AR-LBD (setting [4]). Further, the “Relative potency” value in assay [2] is reported as “equipotent against all 5 PC cell lines”.

As to `Cc1nsc(NC(=O)N2CCC(Sc3ccccc3C)CC2)n1` [Compound S2-6], the figures for the IC50 (in assay [1] (setting [6]); in assay [1] (setting [3]); at AR-LBD (setting [4])) were 49.5 µM, 10 to 100 µM and more than 100 µM, respectively. Besides, the “GI50s against the 3 AR+ PCa cell lines” value in assay [2] was in the range of 14 to 19 µM.

Take `Cc1ccccc1-c1cc(O)c2c(c1)CN(c1cc(N)ncn1)CCO2` [Compound S1-4]: the “Relative potency” value in assay [2] is reported as “equipotent against all 5 PC cell lines”.

`Cc1nsc(NC(=O)N2CCC(Cn3ccnc3)CC2)n1` [Compound S2-7]: in assay [2], the “GI50s against the 3 AR+ PCa cell lines” value fell in the range of 30 to 64 µM and the “GI50s against all 5 PCa cell lines” value lay within 30 to 94 µM. Further, the “GI50s in AR negative cell lines” value in assay [2] (PC-3 and DU-145) was approximately 94 µM.

On to `Cc1ccccc1-c1cc(O)c2c(c1)CN(c1nccs1)CCO2` [Compound S1-3], for which the “IC50 in TIF2 LXXLL-peptide AR-LBD binding assay (potency range in words)” value in assay [1] was “mid 44 μM”. Moreover, the concentration for half-maximal inhibition (IC50) in assay [1] (setting [6]) was 21 to 83 µM. Also, in assay [2], the “Relative potency” value is “differential cytotoxicity in AR positive PC cell lines” and the “GI50s against all 5 PCa cell lines” value lay in the range of 44 to 75 µM. Also, the IC50 at AR-LBD (setting [4]) is more than 100 µM.

With `Cc1ccccc1-c1cc(O)c2c(c1)CN(c1nc(C(N)=O)cs1)CCO2` [Compound S1-1], the concentration for half-maximal inhibition (IC50) in assay [1] (setting [6]) was 21 to 83 µM and 12 µM; in assay [1] (setting [3]) it was 10 to 100 µM; on AR-LBD (10 nM H^3-DHT, listed as 1, read-out: Inhibition H^3-DHT ligand binding to AR-LBD IC50), 26.7 µM; on AR-LBD (setting [4]), ~44 µM and ~27 µM. Also, the “GI50s against all 5 PCa cell lines” value in assay [2] lay within 29 to 70 µM.

For the compound `Cc1c(-c2ccc(F)cc2)[nH]c2ccc(CNC(=O)c3ccc(CO)o3)cc12` [Compound S3-15], the IC50 in assay [1] (setting [3]) is 10 to 100 µM; on AR-LBD (setting [4]), more than 100 µM. In addition, the “Relative potency” value in assay [2] is “roughly equipotent against all 5 PC cell lines”.

As for `CNC(=O)c1ccc(-c2c[nH]c3c(C)cccc23)cc1` [Compound S3-21], the IC50 (in assay [1] (setting [6]); on AR-LBD (setting [4])) was more than 100 µM throughout. Also, the “GI50s against 4 PCa cell lines” value in assay [2] (4 cell lines, not named) fell in the range of 13 to 55 µM. The “Relative potency” value in assay [2] is on record as “differential cytotoxicity in AR positive PC cell lines”.

`CC(=O)NCCC(=O)NCc1ccc2[nH]c(-c3ccccc3F)c(C)c2c1` [Compound S3-13]: the IC50 was 92 µM in assay [1] (setting [6]), 10 to 100 µM in assay [1] (setting [3]) and more than 100 µM at AR-LBD (setting [4]). The “GI50s against 2 AR+ PCa cell lines” value in assay [2] (2 AR+ cell lines, not named) was in the range of 68 to 70 µM. Moreover, the “Relative potency” value in assay [2] is recorded as “roughly equipotent against all 5 PC cell lines”.

As for `Cc1c(-c2ccccc2F)[nH]c2ccc(CNC(=O)CCc3cn[nH]c3)cc12` [Compound S3-11], the 50% inhibitory concentration (IC50) in assay [1] (setting [6]) is 50 µM and 45.2 µM; in assay [1] (setting [3]), 10 to 100 µM; on AR-LBD (setting [4]), more than 100 µM. For the same compound, the “Relative potency” value in assay [2] was “differential cytotoxicity in AR positive PC cell lines”.

`Cc1c(-c2ccccc2F)[nH]c2ccc(CNC(=O)CCc3cnccn3)cc12` [Compound S3-12]: the IC50 (in assay [1] (setting [6]); at AR-LBD (setting [4])) was more than 100 µM throughout. Besides, the “Relative potency” value in assay [2] is “roughly equipotent against all 5 PC cell lines”.
